# From the NIST ThermoML archive (doi:10.1021/je034159d)
# Numbers after ± are expanded uncertainties.
# Experiments:
# [1] = refractive index (Na D-line) (dimensionless); conditions: 313.15 K; 101.33 kPa; Liquid; refractometer
# [2] = 313.15 K; 101.33 kPa; Liquid; Vibrating tube method
refractive index [1],mass density [2] [kg/m3],SMILES
1.359 ± 0.0001,1043.19 ± 0.08,COC(=O)OC [dimethyl carbonate]
1.3754 ± 0.0001,952.43 ± 0.08,CCOC(=O)OCC [diethyl carbonate]
